Tests used:
PD-1/PD-L1 = PD-1/PD-L1 (Homo sapiens (Human), UniProt Q9NZQ7); experiment: PD-1/PD-L1 biochemical protein-protein interaction assay (ALPHA); format: binding; conditions: 0.3 nM His tagged PD-L1, 2.5 nM biotinylated Fc-PD-1, readings of 0.064 nM are equal to or less than 0.064 nM, read-out: IC50 PD-L1-PD1
Protocol: Compounds were tested in biochemical protein-protein interaction assays to determine if they can specifically block the interaction between the extracellular domains of PD-1/PD-L1 or CTLA/CD80. Binding of the protein pairs is measured using a bead based Amplified Luminescent Proximity Homogeneous Assay (ALPHA) platform. […] Final protein concentration in the assays were 0.3 nM (His tagged PD-L1), 2.5 nM (biotinylated Fc-PD-1), 1 nM (His tagged CTLA4) and 1 nM (biotinylated CD80).

PD-L1 = PD-L1 (Homo sapiens (Human), UniProt Q9NZQ7); experiment: PD-L1/PD-L1 dimerization biochemical protein-protein interaction assay (ALPHA); format: binding; conditions: 0.5 nM His tagged PD-L1 and 0.5 nM FLAG tagged PD-L1, Table 4A, read-out: AC50 PDL1 Dimer 1 nM
Sequence of PD-L1 (Q9NZQ7 19-238): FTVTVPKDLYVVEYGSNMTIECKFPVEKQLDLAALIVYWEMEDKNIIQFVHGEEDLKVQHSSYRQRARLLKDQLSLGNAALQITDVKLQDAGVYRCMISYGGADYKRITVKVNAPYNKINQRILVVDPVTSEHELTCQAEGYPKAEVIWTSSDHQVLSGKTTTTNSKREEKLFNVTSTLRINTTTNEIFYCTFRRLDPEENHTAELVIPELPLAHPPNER
Sequence of PD-L1 (Q9NZQ7 19-238): as above

Sequence of PD-1/PD-L1 (Q9NZQ7 19-238): as above

SMILES | IC50 (PD-1/PD-L1) [nM] | AC50 (PD-L1) [nM]
COc1cc(N[C@H]2CCc3c(-c4cccc(-c5ccc(CNC[C@@H]6CCC(=O)N6)c(OC)n5)c4Cl)cccc32)c(Cl)cc1CN1CC[C@@H](C(=O)O)C1 [A-16] | ≤ 0.064 | 42.1
COc1nc(-c2cccc(-c3cccc4c3CC[C@@H]4Nc3nc(OC)c(CN)nc3C(F)(F)F)c2Cl)ccc1CNC[C@@H]1CCC(=O)N1 [A-17] | 0.077 | 13.9
COc1nc(-c2cccc(-c3cccc4c3CC[C@@H]4Nc3nc(OC)c(CN4CC[C@@H](C(=O)O)C4)nc3C(F)(F)F)c2Cl)ccc1CNC[C@@H]1CCC(=O)N1 [A-19] | ≤ 0.064 | 26.1
COc1nc(-c2cccc(-c3cccc4c3CC[C@@H]4Nc3nc(OC)c(CN4CC[C@@](C)(C(=O)O)C4)nc3C(F)(F)F)c2Cl)ccc1CNC[C@@H]1CCC(=O)N1 [A-20] | ≤ 0.064 | 29.1
COc1nc(-c2cccc(-c3cccc4c3CC[C@@H]4Nc3nc(OC)c(CNC4(C(=O)O)CCC4)cc3C(F)(F)F)c2Cl)ccc1CNCC1CCC(=O)N1 (stereo partly shown) [A-22] | ≤ 0.064 | 8.17
COc1nc(-c2cccc(-c3cccc4c3CC[C@@H]4Nc3nc(OC)c(CN4CC[C@@H](C(=O)O)C4)cc3C(F)(F)F)c2Cl)ccc1CN1CC2(CCC(=O)N2)C1 [A-24] | ≤ 0.064 | 38.8
COc1nc(-c2cccc(-c3cccc4c3CC[C@@H]4Nc3nc(OC)c(CN4CC[C@@H](C(=O)O)C4)cc3C(F)(F)F)c2Cl)ccc1CN1CC(C)(O)C1 [A-25] | ≤ 0.064 | 28.1
COc1nc(N[C@H]2CCc3c(-c4cccc(-c5ccc(CNC[C@@H]6CCC(=O)N6)c(OCC#N)n5)c4Cl)cccc32)c(C(F)(F)F)nc1CN1CC[C@@](C)(C(=O)O)C1 [A-26] | ≤ 0.064 | 13.4
COc1nc(N[C@H]2CCc3c(-c4cccc(-c5ccc(CNC[C@@H]6CCC(=O)N6)c(OCC#N)n5)c4Cl)cccc32)c(C(F)(F)F)cc1CN1CCC[C@@]1(C)C(=O)O [A-27] | ≤ 0.064 | 7.77
COc1nc(N[C@H]2CCc3c(-c4cccc(-c5ccc(CNC[C@@H]6CCC(=O)N6)c(OCC#N)n5)c4Cl)cccc32)c(C(F)(F)F)cc1CN1CCC[C@]1(C)C(=O)O [A-28] | ≤ 0.064 | 18.1
COc1nc(N[C@H]2CCc3c(-c4cccc(-c5ccc(CNC[C@@H]6CCC(=O)N6)c(OCC#N)n5)c4Cl)cccc32)c(C(F)(F)F)cc1CNC1(C(=O)O)CC1 [A-29] | ≤ 0.064 | 5.57
COc1cc(-c2cccc(-c3cccc4c3CC[C@@H]4Nc3nc(OC)c(CN(C)CC(=O)O)nc3C(F)(F)F)c2Cl)cc(F)c1CNC[C@@H]1CCC(=O)N1 [A-30] | ≤ 0.064 | 9.89
COc1cc(-c2cccc(-c3cccc4c3CC[C@@H]4Nc3nc(OC)c(CN4CC[C@@H](C(=O)O)C4)nc3C(F)(F)F)c2Cl)cc(F)c1CNC[C@@H]1CCC(=O)N1 [A-31] | ≤ 0.064 | 6.84
COc1cc(-c2cccc(-c3cccc4c3CC[C@@H]4Nc3nc(OC)c(CNC4(C(=O)O)CC4)nc3C(F)(F)F)c2Cl)cc(F)c1CNC[C@@H]1CCC(=O)N1 [A-32] | ≤ 0.064 | 12.5
COc1cc(-c2cccc(-c3cccc4c3CC[C@@H]4Nc3nc(OC)c(CN4CC5(C(=O)O)CCC4CC5)nc3C(F)(F)F)c2Cl)cc(F)c1CNC[C@@H]1CCC(=O)N1 [A-33] | ≤ 0.064 | 11.7
COc1nc(-c2cccc(-c3cccc4c3CC[C@@H]4Nc3nc(OC)c(CN(C)CC(=O)O)nc3C(F)(F)F)c2Cl)ccc1CNC[C@@H]1CCC(=O)N1 [A-34] | ≤ 0.064 | 8.26
COc1nc(-c2cccc(-c3cccc4c3CC[C@@H]4Nc3nc(OC)c(CN(C)CC(=O)O)cc3C(F)(F)F)c2Cl)ccc1CNC[C@@H]1CCC(=O)N1 [A-35] | ≤ 0.064 | 13.2
COc1cc(-c2cccc(-c3cccc4c3CC[C@@H]4Nc3nc(OC)c(CN4CC[C@@H](C(=O)O)C4)cc3C(F)(F)F)c2Cl)ccc1CNC[C@@H]1CCC(=O)N1 [A-36] | ≤ 0.064 | 2.05
COc1cc(N[C@H]2CCc3c(-c4cccc(-c5ccc(CNC[C@@H]6CCC(=O)N6)c(OC)n5)c4Cl)cccc32)c(C(F)(F)F)nc1CNC1(C(=O)O)CC1 [A-37] | ≤ 0.064 | 6.26
COc1nc(-c2cccc(-c3cccc4c3CC[C@@H]4Nc3nc(OC)c(CN4CCC[C@]4(C)C(=O)O)cc3C(F)(F)F)c2Cl)ccc1CNC[C@@H]1CCC(=O)N1 [A-38] | ≤ 0.064 | 16.9
COc1nc(-c2cccc(-c3cccc4c3CC[C@@H]4Nc3nc(OC)c(CN4CCC[C@@]4(C)C(=O)O)cc3C(F)(F)F)c2Cl)ccc1CNC[C@@H]1CCC(=O)N1 [A-39] | ≤ 0.064 | 17.8
COc1nc(-c2cccc(-c3cccc4c3CC[C@@H]4Nc3nc(OC)c(CNC(C)(C)C(=O)O)cc3C(F)(F)F)c2Cl)ccc1CNC[C@@H]1CCC(=O)N1 [A-40] | ≤ 0.064 | 6.81

SMILES | IC50 (PD-1/PD-L1) [nM] | AC50 (PD-L1) [nM]
COc1cc(N[C@H]2CCc3c(-c4cccc(-c5ccc(CNC[C@@H]6CCC(=O)N6)c(OC)n5)c4Cl)cccc32)c(C(F)(F)F)nc1CN1CC[C@@](C)(C(=O)O)C1 [A-42] | ≤ 0.064 | 12.6
COc1cc(N[C@H]2CCc3c(-c4cccc(-c5ccc(CNC[C@@H]6CCC(=O)N6)c(OC)n5)c4Cl)cccc32)c(C(F)(F)F)nc1CN1CC[C@@H](C(=O)O)C1 [A-43] | ≤ 0.064 | 9.89
COc1cc(N[C@H]2CCc3c(-c4cccc(-c5ccc(CNC[C@@H]6CCC(=O)N6)c(OC)n5)c4Cl)cccc32)c(C(F)(F)F)nc1CN [A-44] | ≤ 0.064 | 10.6
COc1nc(-c2cccc(-c3cccc4c3CC[C@@H]4Nc3nc(OC)c(CN[C@@H](C)C(=O)O)nc3C(F)(F)F)c2Cl)ccc1CNC[C@@H]1CC(O)C(=O)N1 (stereo partly shown) [A-45] | ≤ 0.064 | 5.86
COc1nc(-c2cccc(-c3cccc4c3CC[C@@H]4Nc3nc(OC)c(CNCC(=O)O)nc3C(F)(F)F)c2Cl)ccc1CNC[C@@H]1CC(O)C(=O)N1 (stereo partly shown) [A-46] | ≤ 0.064 | 7.18
COc1nc(-c2cccc(-c3cccc4c3CC[C@@H]4Nc3nc(OC)c(CN4CC5(C(=O)O)CCC4CC5)nc3C(F)(F)F)c2Cl)ccc1CNC[C@@H]1CC(O)C(=O)N1 (stereo partly shown) [A-47] | ≤ 0.064 | 22.3
COc1nc(-c2cccc(-c3cccc4c3CC[C@@H]4Nc3nc(OC)c(CN[C@@H](C)C(=O)O)nc3C(F)(F)F)c2Cl)ccc1CNC[C@H]1C[C@H](O)C1 [A-48] | ≤ 0.064 | 13.5
COc1nc(-c2cccc(-c3cccc4c3CC[C@@H]4Nc3nc(OC)c(CNCC(=O)O)nc3C(F)(F)F)c2Cl)ccc1CNC[C@H]1C[C@H](O)C1 [A-49] | ≤ 0.064 | 10.7
COc1nc(-c2cccc(-c3cccc4c3CC[C@@H]4Nc3nc(OC)c(CN[C@@H](C)C(=O)O)nc3C(F)(F)F)c2Cl)ccc1CN[C@H]1C[C@](C)(O)C1 [A-50] | ≤ 0.064 | 17.6
COc1nc(-c2cccc(-c3cccc4c3CC[C@@H]4Nc3nc(OC)c(CN4CCCC[C@]4(C)C(=O)O)cc3C(F)(F)F)c2Cl)ccc1CN1CC(C)(O)C1 [A-51] | ≤ 0.064 | 106
COc1nc(-c2cccc(-c3cccc4c3CC[C@@H]4Nc3nc(OC)c(CN4CCCC[C@@]4(C)C(=O)O)cc3C(F)(F)F)c2Cl)ccc1CN1CC(C)(O)C1 [A-52] | ≤ 0.064 | 15.3
COc1nc(-c2cccc(-c3cccc4c3CC[C@@H]4Nc3nc(OC)c(CN4CC(C)(C(=O)O)C4)cc3C(F)(F)F)c2Cl)ccc1CNC[C@@H]1CCC(=O)N1 [A-53] | ≤ 0.064 | 16.2
COc1nc(-c2cccc(-c3cccc4c3CC[C@@H]4Nc3nc(OC)c(CN4CC(C(=O)O)C4)cc3C(F)(F)F)c2Cl)ccc1CN1CC(C)(O)C1 [A-54] | ≤ 0.064 | 76.6
COc1nc(-c2cccc(-c3cccc4c3CC[C@@H]4Nc3nc(OC)c(CN4CC(C(=O)O)C4)cc3C(F)(F)F)c2Cl)ccc1CNC[C@@H]1CCC(=O)N1 [A-55] | ≤ 0.064 | 13.2
COc1nc(-c2cccc(-c3cccc4c3CC[C@@H]4Nc3nc(OC)c(CN4CCC5CC4(C(=O)O)C5)cc3C(F)(F)F)c2Cl)ccc1CN1CC(C)(O)C1 [A-56] | ≤ 0.064 | 11.8
COc1nc(-c2cccc(-c3cccc4c3CC[C@@H]4Nc3nc(OC)c(CN4CC(C(=O)O)C4)cc3C(F)(F)F)c2Cl)ccc1CN[C@H]1C[C@](C)(O)C1 [A-57] | ≤ 0.064 | 29.6
COc1nc(-c2cccc(-c3cccc4c3CC[C@@H]4Nc3nc(OC)c(CN4CCC5CC4(C(=O)O)C5)cc3C(F)(F)F)c2Cl)ccc1CN[C@H]1C[C@](C)(O)C1 [A-58] | ≤ 0.064 | 9.38
COc1nc(-c2cccc(-c3cccc4c3CC[C@@H]4Nc3nc(OC)c(CN4CCC5CC4(C(=O)O)C5)cc3C(F)(F)F)c2Cl)ccc1CNC[C@@H]1CCC(=O)N1 [A-59] | ≤ 0.064 | 7.75
COc1nc(-c2cccc(-c3cccc4c3CC[C@@H]4Nc3nc(OC)c(CN4C5CCC4(C(=O)O)CC5)cc3C(F)(F)F)c2Cl)ccc1CN1CC(C)(O)C1 [A-60] | ≤ 0.064 | 13.9
COc1nc(-c2cccc(-c3cccc4c3CC[C@@H]4Nc3nc(OC)c(CN4C5CCC4(C(=O)O)CC5)cc3C(F)(F)F)c2Cl)ccc1CNC[C@@H]1CCC(=O)N1 [A-61] | ≤ 0.064 | 10.6
COc1nc(-c2cccc(-c3cccc4c3CC[C@@H]4Nc3nc(OC)c(CN4CC5(C(=O)O)CCC4CC5)nc3C(F)(F)F)c2Cl)ccc1CNC[C@H]1CCC(=O)N1 [A-62] | ≤ 0.064 | 45.4
COc1nc(-c2cccc(-c3cccc4c3CC[C@@H]4Nc3nc(OC)c(CN[C@@H](C)C(=O)O)cc3C(F)(F)F)c2Cl)ccc1CN1CC(C)(O)C1 [A-63] | ≤ 0.064 | 34.4

— patent US10774071B2, “PD-1/PD-L1 inhibitors” (Gilead Sciences, Inc., priority 2018, dated 2020)
